Measurements from ChEMBL document CHEMBL4043238, “Discovery of N-substituted 7-azaindoles as Pan-PIM kinase inhibitors - Lead series identification - Part II” (Bioorg Med Chem Lett, 2017).
In brackets after ≈: the same amount, converted by molar mass. Blank lines part the entries; values can stand above or below the molecule they belong to.

Legend:
[1] = molecular target: T1, Serine/threonine-protein kinase pim-1 (Homo sapiens, UniProt P11309); experiment: Inhibition of PIM1 (unknown origin) assessed as reduction in BAD phosphorylation at Ser112 residues by TR-FRET assay
[2] = molecular target: Serine/threonine-protein kinase pim-2 (Homo sapiens, UniProt Q9P1W9); experiment: Inhibition of PIM2 (unknown origin) assessed as reduction in BAD phosphorylation at Ser112 residues by TR-FRET assay
[3] = molecular target: Serine/threonine-protein kinase pim-3 (Homo sapiens, UniProt Q86V86); experiment: Inhibition of PIM3 (unknown origin) assessed as reduction in BAD phosphorylation at Ser112 residues by TR-FRET assay
[4] = system: KG-1; experiment: Antiproliferative activity against human KG1 cells; assay type: functional, cell-based
[5] = Permeability from apical to basolateral side in human Caco2/TC7 cells at 5 uM; assay type: ADME, cell-based; conditions: Caco-2, read-out: permeability
[6] = molecular target: Voltage-gated inwardly rectifying potassium channel KCNH2 (Homo sapiens, UniProt Q12809); experiment: Inhibition of human ERG by patch clamp assay
[7] = system: Liver; experiment: Stability in human liver microsomes; assay type: ADME, microsome
[8] = system: Liver; experiment: Stability in rat liver microsomes; assay type: ADME, microsome
[9] = system: Liver; experiment: Stability in mouse liver microsomes; assay type: ADME, microsome
[10] = molecular target: T2, Cytochrome P450 3A4 (Homo sapiens, UniProt P08684); experiment: Inhibition of CYP3A4 (unknown origin) using midazolam as substrate; assay type: ADME
[11] = molecular target: T2, Cytochrome P450 3A4; experiment: Inhibition of CYP3A4 (unknown origin) using testosterone as substrate; assay type: ADME
[12] = molecular target: T1, Serine/threonine-protein kinase pim-1; experiment: Inhibition of PIM1 in human KG1 cells assessed as reduction in BAD phosphorylation; assay type: cell-based
[13] = Clearance in human liver microsomes assessed as compound extraction at 5 uM; assay type: ADME, microsome; conditions: read-out: CLH
[14] = Thermodynamic solubility of the compound at pH 7.4; assay type: physicochemical; conditions: buffer, read-out: Therm_solubility
[15] = AUC (0 to infinity) in mouse at 10 mg/kg, po administered as single dose; assay type: ADME, organism-based; parameters: dose 10 mg/kg, route oral, time infinity; conditions: in vivo
[16] = Half life in mouse at 3 mg/kg, iv administered as single dose; assay type: ADME, organism-based; conditions: in vivo
[17] = Half life in mouse at 10 mg/kg, po administered as single dose; assay type: ADME, organism-based; conditions: in vivo
[18] = (§1) Oral bioavailability in mouse at 10 mg/kg administered as single dose; assay type: ADME, organism-based; conditions: in vivo
[19] = Clearance in mouse at 3 mg/kg, iv administered as single dose; assay type: ADME, organism-based; conditions: in vivo
[20] = Volume of distribution at steady state in mouse at 3 mg/kg, iv administered as single dose; assay type: ADME, organism-based; conditions: in vivo, read-out: Vdss
[21] = Cmax in mouse at 3 mg/kg, iv or 10 mg/kg, po administered as single dose; assay type: ADME, organism-based; conditions: in vivo
[22] = Inhibition of CYP450 (unknown origin); assay type: ADME; conditions: human
[23] = Induction of CYP450 (unknown origin); assay type: ADME; conditions: human
[24] = system: Mus musculus; experiment: as §1; assay type: ADME, organism-based; conditions: in vivo
[25] = system: Mus musculus; experiment: Clearance in mouse at 3 mg/kg, iv administered as single dose relative to hepatic blood flow; assay type: ADME, organism-based; conditions: in vivo

IC50 [1]: 103 nM
IC50 [2]: 179 nM
Structure (SMILES): NC(=O)c1cc(Cl)c2c(Cl)c(C3=CCOCC3)n(C3CCCNC3)c2n1 (configuration not stated)

IC50 [1]: 1 nM
IC50 [2]: 6 nM
IC50 [3]: 2 nM
IC50 [12]: 47 nM
Papp A→B at 5 µM [5]: 2.6 ×10⁻⁶ cm/s
hepatic extraction ratio at 5 µM [13]: 0.35
solubility thermodynamic [14]: 42 µM (≈ 18.4 µg/mL)
AUC(0-inf) [15]: 15000 ng·h/mL
half-life [16]: 1.5 h
half-life [17]: 2.3 h
bioavailability [18]: 54%
clearance [19]: 6 mL/min/kg
Vd [20]: 0.55 L/kg
Cmax [21]: 3500 ng/mL
Structure (SMILES): NC(=O)c1cc(Cl)c2c(Cl)c(I)n(C3CCCNC3)c2n1 (racemic)
IC50 [4]: 85 nM

IC50 [1]: 125 nM
IC50 [2]: 7410 nM
IC50 [3]: 480 nM
Structure (SMILES): CCN(CC)CCn1c(I)c(Cl)c2c(Cl)cc(C(N)=O)nc21

IC50 [1]: 32 nM
IC50 [2]: 660 nM
IC50 [3]: 64 nM
Structure (SMILES): NC(=O)c1cc(Cl)c2c(Cl)c(I)n(C3CCNC(=O)C3)c2n1 (racemic)

IC50 [1]: 1 nM
IC50 [2]: 13 nM
IC50 [12]: 115 nM
Papp A→B at 5 µM [5]: 1.9 ×10⁻⁶ cm/s
hepatic extraction ratio at 5 µM [13]: 0.02
solubility thermodynamic [14]: 0.4 µM (≈ 0.141 µg/mL)
inhibition (INH) [22]: Not Active
Activity [23]: Not Active
AUC(0-inf) [15]: 13700 ng·h/mL
half-life [16]: 3.1 h
half-life [17]: 8.9 h
F [24]: 155%
clearance [19]: 18.3 mL/min/kg
Vd [20]: 4.6 L/kg
Cmax [21]: 292 ng/mL
Structure (SMILES): NC(=O)c1cc(Cl)c2c(Cl)c(C3CC3)n(C3CCCNC3)c2n1 (racemic)
IC50 [4]: 310 nM
IC50 [6]: 2900 nM

IC50 [1]: 1 nM
IC50 [2]: 10 nM
IC50 [3]: 2 nM
Structure (SMILES): NC(=O)c1cc(Cl)c2c(Cl)c(I)n(C3CCCC(N)C3)c2n1 (racemic)

IC50 [1]: 1 nM
IC50 [2]: 23 nM
IC50 [3]: 1 nM
Structure (SMILES): NC(=O)c1cc(Cl)c2c(Cl)c(I)n(CC3CCNC3)c2n1 (racemic)

IC50 [1]: 8 nM
IC50 [2]: 57 nM
Structure (SMILES): COC/C=C/c1c(Cl)c2c(Cl)cc(C(N)=O)nc2n1C1CCCNC1 (configuration not stated)

IC50 [1]: 31 nM
IC50 [2]: 135 nM
Structure (SMILES): NC(=O)c1cc(Cl)c2c(Cl)c(C3CCCO3)n(C3CCCNC3)c2n1 (configuration not stated)

More lines, now with the values behind:

Structure (SMILES): NC(=O)c1cc(Cl)c2c(Cl)c(I)n(CCC3CCNCC3)c2n1
IC50 [1]: 3 nM
IC50 [2]: 148 nM
IC50 [3]: 17 nM

Structure (SMILES): NC(=O)c1cc(Cl)c2c(Cl)c(C3CC3)n([C@@H]3CCCNC3)c2n1
IC50 [4]: 822 nM
IC50 [1]: 4 nM
IC50 [2]: 22 nM
Papp A→B at 5 µM [5]: 3.6 ×10⁻⁶ cm/s
IC50 [6]: 1500 nM
Stability [7]: 3%
Stability [8]: 8%
Stability [9]: 11%
IC50 [10]: > 30000 nM
IC50 [11]: > 30000 nM

Structure (SMILES): NC(=O)c1cc(Cl)c2c(Cl)c(I)n(C3CCC(N)CC3)c2n1 (configuration not stated)
IC50 [1]: 1 nM
IC50 [2]: 6 nM
IC50 [3]: 3 nM

Structure (SMILES): Cn1c(I)c(Cl)c2c(Cl)cc(C(N)=O)nc21
IC50 [1]: 31 nM
IC50 [2]: 640 nM
IC50 [3]: 69 nM

Structure (SMILES): CN1CCN(c2ccc(-c3cc4c(Cl)cc(C(N)=O)nc4n3C)cc2)CC1
IC50 [1]: 250 nM
IC50 [2]: > 30000 nM

Structure (SMILES): NCC1CCC(n2c(I)c(Cl)c3c(Cl)cc(C(N)=O)nc32)CC1 (configuration not stated)
IC50 [1]: 3 nM
IC50 [2]: 9 nM

Structure (SMILES): NC(=O)c1cc(Cl)c2c(Cl)c(C#CC3CC3)n(C3CCCNC3)c2n1 (racemic)
IC50 [4]: 167 nM
IC50 [1]: 0.7 nM
IC50 [2]: 6 nM
IC50 [12]: 75 nM
Papp A→B at 5 µM [5]: 3 ×10⁻⁶ cm/s
IC50 [6]: 1000 nM
hepatic extraction ratio at 5 µM [13]: 0.21
solubility thermodynamic [14]: 13 µM (≈ 4.9 µg/mL)
AUC(0-inf) [15]: 2500 ng·h/mL
half-life [16]: 2.6 h
half-life [17]: 3.3 h
bioavailability [18]: 97%
clearance [19]: 65 mL/min/kg
Vd [20]: 11 L/kg
Cmax [21]: 958 ng/mL
CL [25]: > 75%

Structure (SMILES): NC(=O)c1cc(Cl)c2c(Cl)c(I)n(CC3CCNCC3)c2n1
IC50 [1]: 4 nM
IC50 [2]: 99 nM
IC50 [3]: 12 nM
